Test results taken from US20250011368A1, “DLL3 TARGETING PEPTIDES AND CONSTRUCTS THEREOF” (MARIANA ONCOLOGY INC., priority 2023, published 2025).
Numbered stars: 1 amine (or outer) side, 2 acyl side, 3 side chain; on linkers, the order of the positions; unused ones are H or OH. Bridge positions count the residues as written; N and C are the ends. Square brackets hold non-standard residues; d marks the D form. Side chains are listed from the residue outwards. Peptide text beside a SMILES is read from it. * marks the point of attachment. X1 = O=C(O)CN1CCN(CC(=O)O)CCN(CC(=O)NCCCC[C@@H](NC(=O)CCOCCOCCOCCOCCOCCOCCOCCOCCOCCOCCOCCOCCNC(=O)Cc2ccc(Br)cc2)C(=O)NCCOCCOCCOCCOCCOCCOCCOCCOCC(=O)*)CCN(CC(=O)O)CC1; PEG24 = NCCOCCOCCOCCOCCOCCOCCOCCOCCOCCOCCOCCOCCOCCOCCOCCOCCOCCOCCOCCOCCOCCOCCOCCOCCC(=O)O; Ala(piperidin-4-yl) = O=C([C@H](CC1CCN([*:3])CC1)N[*:1])[*:2]; DOTA = O=C(O)CN1CCN(CC(=O)O)CCN(CC(=O)*)CCN(CC(=O)O)CC1; γGlu = O=C(O)[C@H](CCC(=O)[*:2])N[*:1]; 2Nal = N[C@@H](Cc1ccc2ccccc2c1)C(=O)O; Palmitoyl = CCCCCCCCCCCCCCCC(=O)*; Chg = N[C@H](C(=O)O)C1CCCCC1; NMeNle = CCCC[C@H](NC)C(=O)O

What follows are compounds tested against T1, human DLL3 (Homo sapiens, UniProt Q9NYJ7) (assay: Affinity determination by Surface Plasmon Resonance (SPR)). Conditions: 25° C., biotinylated human DLL3 immobilized on streptavidin sensor chip, 1:1 binding model; read-out: SPR KD.
T1 sequence (Q9NYJ7 27-618): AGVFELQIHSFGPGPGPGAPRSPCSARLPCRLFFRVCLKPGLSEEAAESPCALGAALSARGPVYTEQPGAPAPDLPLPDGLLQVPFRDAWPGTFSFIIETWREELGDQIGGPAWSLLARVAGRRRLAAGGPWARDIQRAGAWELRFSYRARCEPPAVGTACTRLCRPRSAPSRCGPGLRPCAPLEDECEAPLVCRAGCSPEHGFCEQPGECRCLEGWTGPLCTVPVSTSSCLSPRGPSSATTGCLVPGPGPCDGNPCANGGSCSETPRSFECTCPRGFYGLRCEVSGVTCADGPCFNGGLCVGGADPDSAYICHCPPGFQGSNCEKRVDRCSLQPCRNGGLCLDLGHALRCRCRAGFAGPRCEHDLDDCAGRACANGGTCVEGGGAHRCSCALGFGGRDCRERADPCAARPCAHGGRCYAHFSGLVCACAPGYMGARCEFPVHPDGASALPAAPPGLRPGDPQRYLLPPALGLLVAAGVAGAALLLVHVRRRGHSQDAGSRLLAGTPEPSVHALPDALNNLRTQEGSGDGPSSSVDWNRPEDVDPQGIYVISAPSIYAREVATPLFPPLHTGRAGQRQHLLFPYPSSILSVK
Type: binding
Summary of the method: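 Kinetic and affinity constants were derived by fitting sensorgrams to a 1:1 binding model. Graded compound concentrations flowed at 100 μL/minute in 20 mM phosphate running buffer with 2% DMSO over streptavidin-immobilized biotinylated human DLL3, reference-subtracted.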

Compound | Kd
CCCCCCCCCCCCCCCC(=O)N[C@@H](CCC(=O)NCCOCCOCCOCCOCCOCCOCCOCCOCCOCCOCCOCCOCCOCCOCCOCCOCCOCCOCCOCCOCCOCCOCCOCCOCCC(=O)NCCCC[C@@H]1NC(=O)[C@H](Cc2ccc3ccccc3c2)NC(=O)[C@H](CC(N)=O)NC(=O)[C@H](CC2CCNCC2)NC(=O)[C@@H](NC(=O)[C@@H](NC(=O)[C@@H](NC(=O)[C@H](Cc2c[nH]c3ccccc23)NC(C)=O)[C@@H](C)O)C2CCCCC2)CSSC[C@@H](C(=O)N[C@@H](Cc2c[nH]c3ccccc23)C(=O)N2CCC[C@H]2C(=O)N[C@H](CCCCNC(=O)CN2CCN(CC(=O)O)CCN(CC(=O)O)CCN(CC(=O)O)CC2)C(N)=O)NC(=O)[C@H](CC(=O)O)NC1=O)C(=O)O [compound 426, Ac-WT-(Chg)-C(3)-[3-(4-piperidinyl)-Ala]-N-(2Nal)-Lys(PEG24-[gE(C16)]-OH)-D-C(3)-W-P-[D-Lys(DOTA)]-NH2] (Ac-WT[Chg]C[Ala(piperidin-4-yl)]N[2Nal]K([PEG24-γGlu-Palmitoyl])DCWP[dK](DOTA)-NH2; disulfide 4-10) | 1 to 10 nM
CCCCCCCCCCCCCCCC(=O)N[C@@H](CCC(=O)NCCOCCOCCOCCOCCOCCOCCOCCOCCOCCOCCOCCOCCOCCOCCOCCOCCOCCOCCOCCOCCOCCOCCOCCOCCC(=O)NCCCC[C@@H]1NC(=O)[C@H](Cc2ccc3ccccc3c2)NC(=O)[C@H](CC(N)=O)NC(=O)[C@H](CC2CCNCC2)NC(=O)[C@@H](NC(=O)[C@H](CCCC)N(C)C(=O)[C@@H](NC(=O)[C@H](Cc2c[nH]c3ccccc23)NC(C)=O)[C@@H](C)O)CSSC[C@@H](C(=O)N[C@@H](Cc2c[nH]c3ccccc23)C(=O)N2CCC[C@H]2C(=O)N[C@H](CCCCNC(=O)CN2CCN(CC(=O)O)CCN(CC(=O)O)CCN(CC(=O)O)CC2)C(N)=O)NC(=O)[C@H](CC(=O)O)NC1=O)C(=O)O [compound 427, Ac-W-T-(NMe-Nle)-C(3)-[3-(4-piperidinyl)-Ala]-N-(2Nal)-Lys(PEG24-[gE(C16)]-OH)-D-C(3)-W-P-[D-Lys(DOTA)]-NH2] (Ac-WT[NMeNle]C[Ala(piperidin-4-yl)]N[2Nal]K([PEG24-γGlu-Palmitoyl])DCWP[dK](DOTA)-NH2; disulfide 4-10) | 10 to 100 nM
Ac-W-T-I-C(3)-N-N-(2Nal)-(4Pya)-D-C(3)-W-P-[D-Lys(DOTA)]-NH2 [compound 367] | < 1 nM

These compounds were tested on SHP-77 tumors (assay: Ex vivo biodistribution of radiolabeled peptides in nude mice bearing SHP-77 tumors). Conditions: [177Lu]Lu labelling, nude mice bearing SHP-77 tumors (n = 3), 24 hours post-injection, kidney.
Method: Mice were intravenously injected (via the lateral tail vein) with a bolus dose of the radiolabeled peptides for ex vivo biodistribution studies when tumor volumes were in range of 200-400 mm^3 for xenograft mice and when age of the mice was 5-7 weeks for tumor naïve mice studies. To assess the amount of radionuclide injected into individual mice the syringe was assayed in a dose calibrator before and after injection for [^177Lu]Lu-peptide.
Mice were euthanized at pre-determined time points and selected tissues were resected and collected into pre-weighed tubes. The tubes were then reweighed post resection, the difference giving the weight of each tissue. Radioactivity in each tissue was measured using a gamma counter. Counts were decay corrected to the time of injection and percentage of injected activity per gram (% IA/g) was calculated for each tissue based on the injected activity into each individual mouse. Injected activity was converted to counts based on the sensitivity of the gamma counter. The counts in tissue were then converted to the percentage of injected activity and this was divided by the mass of tissue to give % IA/g.

Compound | kidney uptake (% IA/g)
CC[C@H](C)[C@H](NC(=O)[C@@H](NC(=O)[C@H](Cc1c[nH]c2ccccc12)NC(C)=O)[C@@H](C)O)C(=O)N[C@H]1CSSC[C@@H](C(=O)N[C@@H](Cc2c[nH]c3ccccc23)C(=O)N2CCC[C@H]2C(=O)N[C@H](CCCCNC(=O)COCCOCCOCCOCCOCCOCCOCCOCCNC(=O)[C@@H](CCCCNC(=O)CN2CCN(CC(=O)O)CCN(CC(=O)O)CCN(CC(=O)O)CC2)NC(=O)CCOCCOCCOCCOCCOCCOCCOCCOCCOCCOCCOCCOCCNC(=O)Cc2ccc(Br)cc2)C(N)=O)NC(=O)[C@H](CC(=O)O)NC(=O)[C@H](Cc2c[nH]cn2)NC(=O)[C@H](Cc2ccc3ccccc3c2)NC(=O)[C@H](CC(N)=O)NC(=O)[C@H](CC(N)=O)NC1=O [compound 252, Ac-W-T-I-C(3)-N-N-(2Nal)-H-D-C(3)-W-P-{D-Lys[PEG8-D-Lys(DOTA)-PEG12-COCH2Ph-4Br]}-NH2] (Ac-WTICNN[2Nal]HDCWP[dK](X1)-NH2; disulfide 4-10) | D (% IA/g > 10 in kidney)
CC[C@H](C)[C@H](NC(=O)[C@@H](NC(=O)[C@H](Cc1c[nH]c2ccccc12)NC(C)=O)[C@@H](C)O)C(=O)N[C@H]1CSSC[C@@H](C(=O)N[C@@H](Cc2c[nH]c3ccccc23)C(=O)N2CCC[C@H]2C(=O)N[C@H](CCCCNC(=O)CN2CCN(CC(=O)O)CCN(CC(=O)O)CCN(CC(=O)O)CC2)C(N)=O)NC(=O)[C@H](CC(=O)O)NC(=O)[C@H](Cc2cnc[nH]2)NC(=O)[C@H](Cc2ccc3ccccc3c2)NC(=O)[C@H](CC(N)=O)NC(=O)[C@H](CCCCN)NC1=O [compound 451, Ac-W-T-I-C(3)-K-N-(2Nal)-H-D-C(3)-W-P-[D-Lys(DOTA)]-CONH2] (Ac-WTICKN[2Nal]HDCWP[dK](DOTA)-NH2; disulfide 4-10) | D (% IA/g > 10 in kidney)

Same assay, conditions: [177Lu]Lu labelling, nude mice bearing SHP-77 tumors (n = 3), 24 hours post-injection, tumor

Compound | tumor uptake (% IA/g)
CC[C@H](C)[C@H](NC(=O)[C@@H](NC(=O)[C@H](Cc1c[nH]c2ccccc12)NC(C)=O)[C@@H](C)O)C(=O)N[C@H]1CSSC[C@@H](C(=O)N[C@@H](Cc2c[nH]c3ccccc23)C(=O)N2CCC[C@H]2C(=O)N[C@H](CCCCNC(=O)COCCOCCOCCOCCOCCOCCOCCOCCNC(=O)[C@@H](CCCCNC(=O)CN2CCN(CC(=O)O)CCN(CC(=O)O)CCN(CC(=O)O)CC2)NC(=O)CCOCCOCCOCCOCCOCCOCCOCCOCCOCCOCCOCCOCCNC(=O)Cc2ccc(Br)cc2)C(N)=O)NC(=O)[C@H](CC(=O)O)NC(=O)[C@H](Cc2c[nH]cn2)NC(=O)[C@H](Cc2ccc3ccccc3c2)NC(=O)[C@H](CC(N)=O)NC(=O)[C@H](CC(N)=O)NC1=O [compound 252, Ac-W-T-I-C(3)-N-N-(2Nal)-H-D-C(3)-W-P-{D-Lys[PEG8-D-Lys(DOTA)-PEG12-COCH2Ph-4Br]}-NH2] (Ac-WTICNN[2Nal]HDCWP[dK](X1)-NH2; disulfide 4-10) | A (0 < % IA/g ≤ 5 in tumor)
CC[C@H](C)[C@H](NC(=O)[C@@H](NC(=O)[C@H](Cc1c[nH]c2ccccc12)NC(C)=O)[C@@H](C)O)C(=O)N[C@H]1CSSC[C@@H](C(=O)N[C@@H](Cc2c[nH]c3ccccc23)C(=O)N2CCC[C@H]2C(=O)N[C@H](CCCCNC(=O)CN2CCN(CC(=O)O)CCN(CC(=O)O)CCN(CC(=O)O)CC2)C(N)=O)NC(=O)[C@H](CC(=O)O)NC(=O)[C@H](Cc2cnc[nH]2)NC(=O)[C@H](Cc2ccc3ccccc3c2)NC(=O)[C@H](CC(N)=O)NC(=O)[C@H](CCCCN)NC1=O [compound 451, Ac-W-T-I-C(3)-K-N-(2Nal)-H-D-C(3)-W-P-[D-Lys(DOTA)]-CONH2] (Ac-WTICKN[2Nal]HDCWP[dK](DOTA)-NH2; disulfide 4-10) | A (0 < % IA/g ≤ 5 in tumor)
